Measured values taken from EP0069521A2, “Pyridinyl and imidazolyl derivatives of benzofurans and benzothiophenes” (THE UPJOHN COMPANY, priority 1981, dated 1983).

Target: T1, TXA2 synthetase (Homo sapiens, UniProt P24557)
T1 construct: generated by mixing prostaglandin H2 (PGHz) with human platelet microsomes (HPM); from tissue; host or cells: human platelet microsomes
T1 sequence (P24557 1-533): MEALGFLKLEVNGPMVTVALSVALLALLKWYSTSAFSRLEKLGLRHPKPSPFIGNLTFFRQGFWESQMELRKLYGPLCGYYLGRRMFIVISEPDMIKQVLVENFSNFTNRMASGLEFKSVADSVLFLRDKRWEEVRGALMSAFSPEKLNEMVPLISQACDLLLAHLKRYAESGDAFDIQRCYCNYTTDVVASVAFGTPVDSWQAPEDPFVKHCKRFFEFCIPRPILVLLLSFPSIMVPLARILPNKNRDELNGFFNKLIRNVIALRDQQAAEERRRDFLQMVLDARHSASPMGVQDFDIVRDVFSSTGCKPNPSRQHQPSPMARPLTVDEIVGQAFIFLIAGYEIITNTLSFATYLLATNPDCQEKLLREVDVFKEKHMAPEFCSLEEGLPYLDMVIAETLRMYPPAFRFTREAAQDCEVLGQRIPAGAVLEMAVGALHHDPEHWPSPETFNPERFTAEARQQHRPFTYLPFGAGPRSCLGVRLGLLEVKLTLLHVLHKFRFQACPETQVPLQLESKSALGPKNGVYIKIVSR
Test: TXA2 inhibition test: TXA2 generated by mixing PGH2 with human platelet microsomes, response of superfused rabbit aortic strips
Assay type: biochemical
Settings: inhibiting TXA2 formation; test compound added to human platelet microsomes 5 minutes before mixing with PGH2; rabbit aorta response
Experimental: The compounds of the present invention were tested for TXA2 inhibition as follows: • Rabbit aortic strips were superfused in series with Krebs solution. Thromboxane Az (TXA2) was generated by mixing prostaglandin H2 (PGHz) with human platelet microsomes (HPM).
Potential inhibitors were tested by comparing the response of the rabbit aorta to the amount of TXA2 produced by mixing PGH2 and HPM without the test compound in the reaction medium and then the amount of TXA2 produced when the test compound was added to the HPM 5 minutes before the HPM was mixed with PGH2. […] For a discussion of TXA2 synthetase inhibition testing see, e.g., R. Gorman, supra.

approximate ED50: ~0.01 µg/mL
Compound: O=C([O-])c1cc2cc(Cc3cccnc3)ccc2o1.[Na+] [Example A-2, Sodium 5-(3'-pyridinylmethyl)benzofuran-2-carboxylate]
